Laboratory results reported in US20020103187A1, “Compositions and methods for treating superficial fungal infections” (priority 1999, published 2002).
Converted amounts (≈) assume the structure as drawn.

Tests used:
C. albicans (Has. A) [1] = assay: Sensitivity of fungi to taurolidine, solid medium; type: cell-based; settings: Candida albicans
C. albicans (I) = assay: Sensitivity of fungi to taurolidine, solid medium; type: cell-based; settings: Candida albicans
C. albicans (Jones) [2] = assay: Sensitivity of fungi to taurolidine, solid medium; type: cell-based; settings: Candida albicans
C. albicans (Wilton) = assay: Sensitivity of fungi to taurolidine, solid medium; type: cell-based; settings: Candida albicans
Aspergillus fumigatus I = assay: Sensitivity of fungi to taurolidine, solid medium; type: cell-based
[3] = system: Aspergillus fumigatus III; assay: Sensitivity of fungi to taurolidine, solid medium; type: cell-based
[4] = system: Trichophyton mentagrophytes; assay: Sensitivity of fungi to taurolidine, solid medium; type: cell-based
Epidermophyton floccosum = assay: Sensitivity of fungi to taurolidine, solid medium; type: cell-based
Mucor spp. (Lane) = assay: Sensitivity of fungi to taurolidine, solid medium; type: cell-based
Rhizopus spp. = assay: Sensitivity of fungi to taurolidine, solid medium; type: cell-based
Sporotrichum schenkii = assay: Sensitivity of fungi to taurolidine, solid medium; type: cell-based
Cryptococcus neoformans = assay: Sensitivity of fungi to taurolidine, solid medium; type: cell-based
C. albicans (Has. A) [5] = assay: Sensitivity of fungi to taurolidine, liquid medium; type: cell-based; settings: Candida albicans
C. albicans (Jones) [6] = assay: Sensitivity of fungi to taurolidine, liquid medium; type: cell-based; settings: Candida albicans
C. spp. = assay: Sensitivity of fungi to taurolidine, liquid medium; type: cell-based
C. tropicalis = assay: Sensitivity of fungi to taurolidine, liquid medium; type: cell-based; settings: Candida tropicalis
Mucor spp. (heavy inoc.) = assay: Sensitivity of fungi to taurolidine, liquid medium; type: cell-based
Mucor spp. (light inoc.) = assay: Sensitivity of fungi to taurolidine, liquid medium; type: cell-based
Aspergillus fumigatus = assay: Sensitivity of fungi to taurolidine, liquid medium; type: cell-based
Trichophyton rubrum = assay: Sensitivity of fungi to taurolidine, liquid medium; type: cell-based
Candida albicans = assay: Antifungal activity; type: cell-based; settings: the exception in the text summary of Table 1
bacteria = assay: Antibacterial activity; type: cell-based; settings: antifungal activity stated approximately equivalent to it
[7] = Solubility in aqueous solutions and organic solvents; type: physicochemical
[8] = pH of saturated solution in deionized water; type: physicochemical
[9] = Apparent partition coefficient between octanol and water; type: physicochemical; settings: water buffered at pH 7.2
[10] = Stability in the solid state; type: physicochemical; settings: stored at ambient conditions
[11] = systemic doses exceeding 40 g/day and cumulative doses up to and exceeding 300 g; cited from earlier work

O=S1(=O)CCN(CN2CCS(=O)(=O)NC2)CN1 [Taurolidine, 4,4′-methylenebis(tetrahydro-1,2,4-thiadiazine)1,1,1′,1′,-tetraoxide]
MIC (C. albicans (Has. A) [1]): > 5000 µg/mL | MIC (C. albicans (I)): > 5000 µg/mL | MIC (C. albicans (Jones) [2]): > 5000 µg/mL | MIC (C. albicans (Wilton)): > 5000 µg/mL | MIC (Aspergillus fumigatus I): 625 µg/mL (≈ 2200 µM) | MIC [3]: 625 µg/mL (≈ 2200 µM) | MIC [4]: < 300 µg/mL | MIC (Epidermophyton floccosum): < 300 µg/mL | MIC (Mucor spp. (Lane)): 625 µg/mL (≈ 2200 µM) | MIC (Rhizopus spp.): 625 µg/mL (≈ 2200 µM) | MIC (Sporotrichum schenkii): 625 µg/mL (≈ 2200 µM) | MIC (Cryptococcus neoformans): < 300 µg/mL | MIC (C. albicans (Has. A) [5]): 2500 µg/mL (≈ 8790 µM) | MIC (C. albicans (Jones) [6]): 5000 µg/mL (≈ 17600 µM) | MIC (C. spp.): 625 µg/mL (≈ 2200 µM) | MIC (C. tropicalis): 300 µg/mL (≈ 1050 µM) | MIC (Mucor spp. (heavy inoc.)): 625 µg/mL (≈ 2200 µM) | MIC (Mucor spp. (light inoc.)): 625 µg/mL (≈ 2200 µM) | MIC (Aspergillus fumigatus): 300 µg/mL (≈ 1050 µM) | MIC (Trichophyton rubrum): 300 µg/mL (≈ 1050 µM) | antifungal activity (Candida albicans): > 5 mg/mL | antibacterial activity (bacteria): 0.3 to 0.6 mg/mL | solubility ([7]; CHCl3): insoluble | solubility ([7]; Dilute HCl): soluble | solubility ([7]; Dilute NaOH): soluble | solubility ([7]; EtOH): sparingly soluble | solubility ([7]; Water, 20° C.): 1% at 20 °C | pH of a saturated solution [8]: 7.4 | apparent partition coefficient between octanol and water [9]: approximately 0.13 | stability in the solid state [10]: acceptable stability | safety and tolerability [11]: safe and well tolerated
